Columns and labels:
[1] = test system: γH2AX foci in HCT116 cells; assay: γH2AX detection by immunofluorescence; type: cell-based, human; details: HCT116, 1 μM, 3 h
Procedure: To evaluate the DNA damaging effect of 50 in cancer cells, γH2AX foci were assessed by immunofluorescence microscopy in human […] HCT116 cells. After incubation with the compounds for 3 h, the HCT116 cells were stained with γH2AX antibodies.
HCT116 cells (2×10^4 cells/mL) were grown in culture medium and treated with compounds for 3 h at 37° C. […] Cells were permeabilized with 0.5% Triton X-100 in PBS at 0° C. for 30 min. Dish was blocked with 5% goat serum/PBS at 37° C. for 3 h. […] The dishes were again washed six times with blocking buffer. Digital images were recorded using an LSM710 microscope (Zeiss, Germany) and analyzed with ZEN software.

HCT116 cells = assay: Flow cytometry apoptosis assay; type: cell-based, human
Procedure: To evaluate the induction of apoptosis by 50, flow cytometry assays were performed in HCT116 cells.
The stained cells were analyzed by using flow cytometry (BD, FACSCalibur, USA) within I h. The experiments were repeated three times independently.

[2] = Pharmacokinetic study in rat; details: SD rats
Procedure: The SD rats were divided into two groups (n=3) and treated by intravenous injection (i.v.) at 1 mg/kg dose and intragastrical administration (i.g.) at 5 mg/kg dose, respectively.
A pharmacokinetic (PK) study in vivo of 50 was performed in Sprague-Dawley (SD) rats. The SD rats were randomly divided into two groups […] and treated by intravenous injection (iv) at 1 mg/kg dose or an intragastrical administration (ig) at 5 mg/kg dose, respectively. Plasma samples were collected postdosing and the concentration of 50 was measured.
Plasma samples (100 μL) were obtained after centrifugation for 10 min at 3000 rpm and stored at −20° C. until used for analysis. The plasma was detected through LC-MS-MS.

MCF-7 xenograft = assay: In vivo antitumor activity, MCF-7 xenograft; design: species or system nude mice; tumor weight inhibitions (TWI): dose or concentration left out as unconfirmed
HCT116 xenograft = assay: In vivo antitumor activity, HCT116 xenograft

Q: What does the source list for CNCCn1c(=O)c2cc(OC)c(OC)cc2c2ccc3cc4c(cc3c21)OCO4 [Compound 50, 2,3-dimethoxy-12-(2-(methylamino)ethyl)-[1,3]dioxolo[4′5′:4,5]benzo[1,2-c]phenanthridin-13(12H)-one]?
A: γH2AX foci [1]: effectively induced γH2AX foci; early apoptotic cells (HCT116 cells; HCT116, 24 h, 2 μM): 27.95%; induction of apoptosis (HCT116 cells; HCT116, 24 h, 0.5, 1 and 2 μM): clearly induced HCT116 cells apoptosis in a dose-dependent manner; AUC0→t ([2]; i.g. 5 mg/kg): 48.3 ± 28 ng·h/mL; Cmax ([2]; i.g. 5 mg/kg): 19 ± 9 ng/mL; Tmax ([2]; i.g. 5 mg/kg): 2 ± 0 h; F (%) ([2]; i.g. 5 mg/kg vs i.v. 1 mg/kg): 20.4%; AUC0→t ([2]; i.v. 1 mg/kg): 47.2 ± 1.8 ng·h/mL; AUC0→∞ ([2]; i.v. 1 mg/kg): 49.8 ± 1.5 ng·h/mL; MRTINF ([2]; i.v. 1 mg/kg): 1.46 ± 0.027 h; T1/2 ([2]; i.v. 1 mg/kg): 1.21 h; tumor weight inhibitions (TWI) (MCF-7 xenograft; MCF-7 model, ip daily): 71.8%; tumor volume (MCF-7 xenograft; MCF-7 xenograft, 5, 10, 20 mg/kg ip daily): significantly reduced the tumor volume in a dose-dependent manner; tumor weight inhibitions (TWI) (HCT116 xenograft; HCT116 model, 20 μM dose (so in the source), ip daily): 76.9%; tumor volume (HCT116 xenograft; HCT116 xenograft, i.p. once every day): significantly reduced the tumor volume in a dose-dependent manner
